Data published in patent US5328922A, “Indole ureas as 5 ht receptor antagonist” (priority 1990, dated 1994).
Where a name gives a salt, the structure may show the parent alone. Read-outs that look alike come from different tables or passages of the source.

Columns and labels:
5-HT1C binding site = biological target: T1, 5-HT1C binding site (Sus scrofa, UniProt K7GSR7); experiment: [^3 H]-mesulergine binding to pig choroid plexus membranes in vitro
T1 construct: Pooled pig choroid plexi were homogenised; from tissue; host or cells: pig choroid plexus membranes
T1 sequence (K7GSR7 1-457): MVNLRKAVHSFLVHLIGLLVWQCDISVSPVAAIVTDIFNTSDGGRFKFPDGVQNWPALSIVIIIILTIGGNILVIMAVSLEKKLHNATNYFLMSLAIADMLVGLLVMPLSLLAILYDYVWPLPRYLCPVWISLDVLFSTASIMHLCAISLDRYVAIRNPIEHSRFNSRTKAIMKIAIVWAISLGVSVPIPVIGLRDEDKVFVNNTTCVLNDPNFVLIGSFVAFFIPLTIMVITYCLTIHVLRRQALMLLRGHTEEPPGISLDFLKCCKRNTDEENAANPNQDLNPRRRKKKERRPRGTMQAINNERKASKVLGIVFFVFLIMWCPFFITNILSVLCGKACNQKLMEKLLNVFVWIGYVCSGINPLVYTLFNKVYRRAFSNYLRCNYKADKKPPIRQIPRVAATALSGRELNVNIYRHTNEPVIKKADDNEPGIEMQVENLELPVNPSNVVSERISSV
Excerpt: [^3 H]-mesulergine binding to pig choroid plexus membranes in vitro
(Curzon and Kennett, 1990; Fozard and Gray, 1989) and Alzheimer's Disease (Lawlor, 1989, J. Arch. Gen. Psychiat. Vol. 46 p.542).
The affinity of test drugs for the 5-HT1C binding site can be determined by assessing their ability to displace [^3 H]-mesulergine from 5-HT1C binding sites in pig choroid plexus membranes. The method employed was similar to that of Pazos et al, 1984.
Pooled pig choroid plexi were homogenised in 20 vols of Tris HCl buffer (pH7.4) (containing 4 mM CaCl2 and 0.01% ascorbic acid) and centrifuged at 50,000 g for 15 rain at 4° C. The supernatant was removed and re-centrifuged. This was repeated a further two times with the incubation of the homogenate (37° C. for 15 min) before the final centrifugation. The final pellet was resuspended in 20 vols of buffer and stored at -70° C. until use.
The tissue suspension (50 μl) was incubated with [^3 H]-mesulergine (2 nM) in Tris HCl buffer (pH7.4) at 37° C. (containing 0.01% ascorbic acid, 4 mM CaCl2) and 3×10^-8 M spiperone for 30 minutes. Non-specific binding was measured in the presence of mianserin (10^-6 M). Six concentrations of test drug (10^-9 to 10^-4 M final concentration) were added in a volume of 50 μl. The total assay volume was 500 μl. Incubation was stopped by rapid filtration using a Skatron cell harvester and radioactivity measured by liquid scintillation spectrometry. The IC50 values were determined and the pKi (the negative logarithm of the inhibition constant) calculated from the Cheng Prusoff equation where [formula] wherein: Ki =inhibition constant.
C=concentration of [^3 H]-mesulergine
Kd=Affinity of mesulergine for 5-HT1C binding sites.
Curzon, G. A. and Kennett, G. A. (1990). TIPS, Vol. 11, 181-182. Fozard, J. R. and Gray, J. A. (1989). TIPS, Vol. 10, 307-309. Pazos, A. et al. (1984). Eur. J. Pharmacol., 106, 531-538.

[1] = biological target: T2, 5-HT receptor that has the characteristics of a 5-HT1C receptor (Rattus norvegicus, UniProt P30994); experiment: Rat stomach fundus: 5-HT1C antagonist action (inhibition of 5-HT-induced contractions); conditions: rat stomach strips; test drug 10^-6 M for 30 mins; 5-HT dose-response; read-out: apparent dissociation constant, KB
T2 construct: from tissue; host or cells: rat stomach fundus strips
T2 sequence (P30994 whole entry): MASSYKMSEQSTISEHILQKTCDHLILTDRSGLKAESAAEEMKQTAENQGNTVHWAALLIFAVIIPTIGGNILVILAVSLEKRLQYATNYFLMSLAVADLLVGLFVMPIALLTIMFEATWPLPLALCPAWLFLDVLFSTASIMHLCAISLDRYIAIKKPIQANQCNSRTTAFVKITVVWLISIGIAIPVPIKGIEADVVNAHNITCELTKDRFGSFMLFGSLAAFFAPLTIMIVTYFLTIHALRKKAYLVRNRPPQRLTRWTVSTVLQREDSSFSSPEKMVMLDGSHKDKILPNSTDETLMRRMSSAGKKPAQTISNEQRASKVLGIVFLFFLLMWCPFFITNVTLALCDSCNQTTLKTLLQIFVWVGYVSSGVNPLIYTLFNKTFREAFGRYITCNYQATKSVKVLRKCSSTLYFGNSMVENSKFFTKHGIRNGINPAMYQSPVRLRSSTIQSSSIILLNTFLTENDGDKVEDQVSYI
Description: 5-Hydroxytryptamine (5-HT) induces contractions of the rat stomach fundus through a 5-HT receptor that has the characteristics of a 5-HT1C receptor (Blackburn et al, 1990).
Rat stomach strips (6×4 mm) were suspended under a 4 g tension in 5 ml baths containing Tyrode solution, gassed with a mixture of 95% O2 /5% CO2. After a 1 hour equilibration period, two dose response curves were constructed to 5-HT (final concentrations, 10^-9 to 3×10^-6 M). Test drugs were then incubated at a final concentration of 10^-6 M for 30 mins and another dose-response curve constructed to 5-HT. The apparent dissociation constant of a test drug, KB, can be calculated from the equation where [formula] where B=concentration of the test drug and DR=the dose ratio (the factor by which the concentration of the agonist has to be increased in the presence of the test drug to obtain an identical effect observed in the absence of the test drug).

[2] = Social Interaction Test (potential anxiolytic properties); type: in vivo, rat; conditions: male rats; p.o. 1 h pretest; doses of 2-40 mg/kg
Excerpt: Potential anxiolytic properties have been evaluated using the social interaction test based on that described by File (1980 J. Neurosci. Meth., 2, 219). Active social interaction between male rats is usually quantitated by counting interactive behaviours such as following, grooming, sniffing, climbing over or under, biting, mounting and boxing. This behaviour is supressed when the rats encounter each other in an environment which is novel and brightly lit. Under these circumstances anxiolytic drugs will enhance the level of social interaction.
Rats were housed in groups of 8 in a holding room adjacent to the experimental chamber for 8 days. They were then housed singly in the same room for 3 days prior to the experimental day. On the experimental day rats were injected p.o. 1 h pretest with vehicle or drug in pairs at 15 min intervals beginning at 10.00 am. 60 Mins later they were placed with a weight matched pair mate (encountered for the first time) in the social interaction box in a separate room. The box was made of while perspex 54×37×26 cm with no lid. The floor was divided into 24 equal squares and the cage was brightly lit. Active social interaction was scored blind over the next 15 min by remote video monitoring to give total interaction scores. The number of squares crossed by each rat was also scored and summed. […]

[3] = Geller-Seifter Procedure (potential anxiolytic properties); type: in vivo, rat; conditions: rats; 30 min before testing; dose levels in the range 5-40 mg/kg p.o.
Description: Potential anxiolytic properties are evaluated using the Geller-Seifter procedure based on that originally described by Geller and Seifter, (1960) Psychopharmacologia, 1, 482-492.
Rats are trained on a variable interval 30 sec schedule (VI30) to press a lever in order to obtain food reward. The 5 min sessions of the VI30 schedule alternate with 2-5 min of a schedule (FR5) in which every 5th lever press is followed by presentation of a food pellet paired with a 0.5 sec mild footshock. The total study lasts approximately 30 mins. Rats typically respond with high rates of lever pressing under the VI30 schedule and low response rates under the FR5 `conflict` session. Anxiolytic drugs increase the suppressed response rates of rats in a `conflict` session.
Drugs are administered intraperitoneally or orally to groups of 3-8 rats 30 min before testing.
The results are expressed as the percentage increase in the square root of the total number of lever presses in the FR5 `conflict` session. Square root transformation is necessary to normalise the data for statistical analysis using parametric methods.

[4] = system: rat stomach fundus serotonin receptor; conditions: P. Fludzinski et. al., J. Med. Chem. 1986 29 2415-2418; cited from earlier work

SMILES | Ki (5-HT1C binding site) | Kb [1] | Ki (5-HT1C binding site; [^3 H]-mesulergine 2 nM, pig choroid plexus membranes, 3×10^-8 M spiperone, pH7.4, 37° C., 30 minutes, pKi from IC50 by Cheng Prusoff equation, read-out: [^3 ]-Mesulergine pKi (converted)) | social interaction [2] | responding in the `conflict` session (percentage increase in square root of total lever presses in FR5) [3] | selectivity for the rat stomach fundus serotonin receptor [4]
CCc1c(C)n(C)c2ccc(NC(=O)Nc3cccnc3)cc12 [E1, N-(1,2-Dimethyl-3-ethyl-1H-indol-5-yl)-N'-(3-pyridyl)urea hydrochloride] | 25.1 nM | 32 nM |  |  |  | 
Cl.Cn1ccc2cc(NC(=O)Nc3cccnc3)ccc21 [E2, N-(1-Methyl-1H-indol-5-yl)-N'-(3-pyridyl)urea hydrochloride] |  | 100 nM | 158 nM | significant increase in social interaction | significant increase in responding in the `conflict` session | 
Cc1c(C)n(C)c2ccc(NC(=O)Nc3cccnc3)cc12 [E3, N-(1,2,3-Trimethyl-1H-indol-5-yl)-N'-(3-pyridyl)urea hydrochloride] | 200 nM | 25 nM |  |  |  | 
CCCn1ccc2cc(NC(=O)Nc3cccnc3)ccc21 [E4, N-(1-Propyl-1H-indol-5-yl)-N'-(3-pyridyl)urea oxalate] | 200 nM | 400 nM |  |  |  | 
Cn1ccc2c(NC(=O)Nc3cccnc3)cccc21 [E5, N-(1-Methyl-1H-indol-4-yl)-N'-(3-pyridyl)urea hydrochloride] | 200 nM | 250 nM |  |  |  | 
Cn1ccc2ccc(NC(=O)Nc3cccnc3)cc21 [E6, N-(1-Methyl-1H-indol-6-yl)-N'-(3-pyridyl)urea hydrochloride] | 316 nM | 170 nM |  |  |  | 
CCc1c(C)n(C)c2ccc(NC(=O)Nc3cccc(C(F)(F)F)c3)cc12 [N-(1,2-dimethyl-3-ethyl-1H-indol-5-yl)-N'-(3-trifluoromethylphenyl)urea] |  |  |  |  |  | shows selectivity for the rat stomach fundus serotonin receptor
